Laboratory results published in PubChem BioAssay (NCI).
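Compound exposure: 48 hours, 5 concentrations, 96-well plates. TGI denotes the concentration required for complete inhibition of growth.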

What was measured:
Test in all cases: DTP human tumour cell line panel, 48 h
786-0 renal = system: 786-0 renal
A498 renal = system: A498 renal
A549 NSCLC = system: A549 NSCLC
ACHN renal = system: ACHN renal
CAKI-1 renal = system: CAKI-1 renal
CCRF-CEM leukemia = system: CCRF-CEM leukemia
COLO 205 colon = system: COLO 205 colon
DU-145 prostate = system: DU-145 prostate
EKVX NSCLC = system: EKVX NSCLC
HCC-2998 colon = system: HCC-2998 colon
HCT-116 colon = system: HCT-116 colon
HCT-15 colon = system: HCT-15 colon
HL-60(TB) leukemia = system: HL-60(TB) leukemia
HOP-62 NSCLC = system: HOP-62 NSCLC
HOP-92 NSCLC = system: HOP-92 NSCLC
HS 578T breast = system: HS 578T breast
HT29 colon = system: HT29 colon
IGROV1 ovarian = system: IGROV1 ovarian
K-562 leukemia = system: K-562 leukemia
KM12 colon = system: KM12 colon
LOX IMVI melanoma = system: LOX IMVI melanoma
M14 melanoma = system: M14 melanoma
MALME-3M melanoma = system: MALME-3M melanoma
MDA-MB-231 breast = system: MDA-MB-231 breast
MDA-MB-435 = system: MDA-MB-435
MDA-N = system: MDA-N
MOLT-4 leukemia = system: MOLT-4 leukemia
NCI-H226 lung = system: NCI-H226 lung
NCI-H23 lung = system: NCI-H23 lung
NCI-H460 lung = system: NCI-H460 lung
NCI-H522 lung = system: NCI-H522 lung
NCI/ADR-RES ovarian = system: NCI/ADR-RES ovarian
OVCAR-3 ovarian = system: OVCAR-3 ovarian
OVCAR-4 ovarian = system: OVCAR-4 ovarian
OVCAR-5 ovarian = system: OVCAR-5 ovarian
OVCAR-8 ovarian = system: OVCAR-8 ovarian
PC-3 prostate = system: PC-3 prostate
RPMI-8226 leukemia = system: RPMI-8226 leukemia
RXF 393 renal = system: RXF 393 renal
SF-268 CNS = system: SF-268 CNS
SF-295 CNS = system: SF-295 CNS
SF-539 CNS = system: SF-539 CNS
SK-MEL-2 melanoma = system: SK-MEL-2 melanoma
SK-MEL-28 melanoma = system: SK-MEL-28 melanoma
SK-MEL-5 melanoma = system: SK-MEL-5 melanoma
SK-OV-3 ovarian = system: SK-OV-3 ovarian
SN12C renal = system: SN12C renal
SNB-19 CNS = system: SNB-19 CNS
SNB-75 CNS = system: SNB-75 CNS
SW-620 colon = system: SW-620 colon
T-47D breast = system: T-47D breast
TK-10 renal = system: TK-10 renal
U251 CNS = system: U251 CNS
UACC-257 melanoma = system: UACC-257 melanoma
UACC-62 melanoma = system: UACC-62 melanoma
UO-31 renal = system: UO-31 renal
MCF7 breast = system: MCF7 breast
BT-549 breast = system: BT-549 breast
SR leukemia = system: SR leukemia

Measured: TGI

COC(=O)[C@@H]1CN(C(C)=O)C(=O)N1
not listed: MCF7 breast | BT-549 breast | SR leukemia
> 100 µM: all other assays above

Cc1cc(=O)[nH]c(-n2[nH]c(C)c(CCO)c2=O)n1
not listed: HOP-92 NSCLC | MOLT-4 leukemia | SNB-75 CNS | BT-549 breast | SR leukemia
> 100 µM: all other assays above

CCc1n[nH]c(=O)n1/N=C/c1c(O)ccc2ccccc12
not listed: A498 renal | CAKI-1 renal | HL-60(TB) leukemia | HS 578T breast | HT29 colon | MALME-3M melanoma | NCI-H226 lung | NCI-H460 lung | T-47D breast
> 100 µM: all other assays above

CN1CCOC(c2ccc(Cl)cc2)O1 (stereo unspecified)
not listed: 786-0 renal | DU-145 prostate | HCT-116 colon | HL-60(TB) leukemia | HS 578T breast | LOX IMVI melanoma | RPMI-8226 leukemia | T-47D breast
> 100 µM: all other assays above
